# Data from US7781565B2 (priority 2006, dated 2010).
# Entries after “also recorded” stand apart in the source; their conditions may differ.
# System: NCI-60 cell lines
# Assay type: cell-based, human
Substance,Cell Line the peptide is associated with (peptide recovered from phage library selection on this NCI-60 cell line),Cell Line with which the peptide (and its tripeptide motif) is associated,Cell Line (NCI-60 cell line the peptide and its motif are associated with),Cell Line (NCI-60 cell line the peptide is associated with)
VMGAGVQ,ACHN Renal,–,–,–
GFYWLRS,–,Molt-4-Leukemia,–,–
LRGSRQF,–,–,SK-MEL-28 Melanoma,–
QGRVNVK,–,H226-Lung,–,SNB-19 CNS; also recorded: SF-539 CNS
GAGSISD,–,RPMI-8226-Leukemia,–,–
EVGGGLT,–,CCRF-CEM Leukemia,–,–
RRSGAGG,UO31 Renal,–,–,–
AAVGTAL,RXF393 Renal,–,–,–
WRLAGLG,NCI/ADR-RES Breast,–,–,–
GDRAVGL,UO31 Renal,–,–,–
ELWASLG,–,–,–,HT-29 Colon
GSVLPVL,–,–,SK-OV-3-3 Ovarian,–
DGEGAGL,–,–,–,SNB-75 CNS
SRLSYCN,–,–,OVCAR-4 Ovarian,–
PTSGRLV,–,–,PC3 Prostate,–
LLSTVWV,TK-10 Renal,–,–,–
FGLGSSR,–,Hop-62-Lung,–,–
HGLVTHN,–,–,–,MALME-3M Melanoma
GVAGLRW,–,–,–,SW620-Colon
PYYNGVR,–,–,IGROV1 Ovarian,–
HIGLGGL,–,–,–,SF-295 CNS
RARTGGS,–,–,–,SNB-75 CNS

Substance,Cell Line the peptide is associated with (peptide recovered from phage library selection on this NCI-60 cell line),Cell Line with which the peptide (and its tripeptide motif) is associated,Cell Line (NCI-60 cell line the peptide and its motif are associated with),Cell Line (NCI-60 cell line the peptide is associated with)
LVGRVKL,–,–,–,HT-29 Colon
GVSISDG,SN12C Renal,–,–,–
AGGRWNL,–,–,–,HT-29 Colon
KVVGRLG,–,–,–,HCT-116 Colon
GPFRAVP,–,–,–,COLO-205-Colon
ISPRSSG,–,–,–,HCT-15 Colon
GRYSLRS,–,RPMI-8226-Leukemia,–,–
LMLVSGK,NCI/ADR-RES Breast,–,–,–
AGSLSVF,–,CCRF-CEM Leukemia,–,–
LRSGRGS,MDA-MB-435-Breast,RPMI-8226-Leukemia,–,–
LIRAVSA,–,H460-Lung,–,–
NEGRLGI,–,–,–,SNB-75 CNS
AVHSGRL,ACHN Renal,–,–,–
GGVRLGG,–,–,PC3 Prostate,–
FHFGGSG,–,–,OVCAR-5 Ovarian,–
RLSTFAG,–,–,–,SNB-19 CNS; also recorded: SF-539 CNS
QTLSAGG,–,–,–,SF-295 CNS
GAVNTPA,–,–,SK-MEL-2 Melanoma,–
AGGPTKY,–,SR Leukemia,–,–
DWGSRGV,MDA-MB-231 Breast,–,–,–
GSGYFIT,–,–,786-0 Renal,–
GEVGLGV,–,–,–,HT-29 Colon

Substance,Cell Line the peptide is associated with (peptide recovered from phage library selection on this NCI-60 cell line),Cell Line with which the peptide (and its tripeptide motif) is associated,Cell Line (NCI-60 cell line the peptide and its motif are associated with),Cell Line (NCI-60 cell line the peptide is associated with)
RLWGSVV,–,–,SK-OV-3-3 Ovarian,–
GAGRTVM,–,SR Leukemia,–,–
LAGSGSH,–,Molt-4-Leukemia,–,–
INWAGLS,–,Hop-92-Lung,–,–
FMTYGSG,–,–,OVCAR-4 Ovarian,–
GGPGLVM,–,–,OVCAR-4 Ovarian,–
FEDLLSL,–,–,–,MALME-3M Melanoma
GGALLRG,–,Hop-92-Lung,–,–
VIGSRLS,–,EKVX-Lung,–,–
VGSVVGR,–,Hop-92-Lung,–,–
RLSSAPS,–,–,M14 Melanoma,–
GLMRLSH,–,–,UACC62 Melanoma,–
SGVGGRY,–,–,UACC 257 Melanoma,–
NRSSHCG,–,–,M14 Melanoma,–
DRQLAGR,HS 578 T Breast,–,–,–
RGSRWSS,BT-549 Breast,–,–,–
GVLARVT,–,CCRF-CEM Leukemia,–,–
ERGSPSR,–,H460-Lung,–,–
RGVGAKA,NCI/ADR-RES Breast,–,–,–
SHRSSTG,T-47D Breast,–,–,–
PSVGVRA,–,H322-Lung,–,–
SGSSVRY,–,–,–,SNB-75 CNS

Substance,Cell Line the peptide is associated with (peptide recovered from phage library selection on this NCI-60 cell line),Cell Line with which the peptide (and its tripeptide motif) is associated,Cell Line (NCI-60 cell line the peptide and its motif are associated with),Cell Line (NCI-60 cell line the peptide is associated with)
GSGRGVA,–,Hop-92-Lung,–,–
KVSVASL,–,–,SK-MEL-5 Melanoma,–
RALGLVS,–,CCRF-CEM Leukemia,–,–
RHGPGVL,–,–,OVCAR-3 Ovarian,–
LGGRTIS,–,–,DU-145 Prostate,–
SRAVIDM,–,CCRF-CEM Leukemia,–,–
ESARGAL,–,–,OVCAR-4 Ovarian,–
LVGRGVR,–,–,–,SF-268 CNS
GGSLKWV,–,–,SK-MEL-2 Melanoma,–
RSTLGPS,–,–,–,HT-29 Colon
PRLGRLL,TK-10 Renal,–,–,–
RGRLEVP,–,Molt-4-Leukemia,–,–
LGLVFTR,T-47D Breast,–,–,–
GVSALSL,–,–,–,HT-29 Colon
EAVSGRR,HS 578 T Breast,–,–,–
SVYALRS,–,–,–,COLO-205-Colon
GRGLRTD,–,–,–,SF-295 CNS
LVSSSEP,–,HL-60-Leukemia,–,–
RALGAAS,–,–,SK-OV-3-3 Ovarian,–
LVYSGRL,–,–,–,SW620-Colon
DTPAGRL,MDA-MB-231 Breast,–,–,–
FMGAGFA,–,HL-60-Leukemia,–,–

Substance,Cell Line the peptide is associated with (peptide recovered from phage library selection on this NCI-60 cell line),Cell Line with which the peptide (and its tripeptide motif) is associated,Cell Line (NCI-60 cell line the peptide and its motif are associated with),Cell Line (NCI-60 cell line the peptide is associated with)
PAASRLL,–,RPMI-8226-Leukemia,–,–
RRGSLMF,–,–,–,SW620-Colon
RSLGSVG,–,–,DU-145 Prostate,–
GGGRRAL,–,–,PC3 Prostate,–
FDRGSLT,–,–,–,SF-295 CNS
RSSLGLP,–,H226-Lung,–,–
GLGGWVA,–,H226-Lung,–,–
QWYSLRS,–,–,–,LOX-IMVI Melanoma
VRVGRLS,–,–,UACC62 Melanoma,–
DWVGVLM,–,–,UACC62 Melanoma,–
DGGSLVV,–,–,–,LOX-IMVI Melanoma
VGRLQTT,–,–,UACC62 Melanoma,–
YMYHGRV,–,–,OVCAR-4 Ovarian,–
LGGSGRR,–,H23-Lung,–,–
IGSGVGV,NCI/ADR-RES Breast,–,–,–
FSPRGSV,–,–,–,SNB-19 CNS; also recorded: SF-539 CNS
GSGQLIP,–,–,M14 Melanoma,–
GSSRQFV,–,A549-Lung,–,–
LLSFLGR,–,Molt-4-Leukemia,–,–
LRGVYVA,NCI/ADR-RES Breast,–,–,–
PRLSWVL,–,–,–,HT-29 Colon
RAGRGFE,–,–,UACC62 Melanoma,–

Substance,Cell Line the peptide is associated with (peptide recovered from phage library selection on this NCI-60 cell line),Cell Line with which the peptide (and its tripeptide motif) is associated,Cell Line (NCI-60 cell line the peptide and its motif are associated with),Cell Line (NCI-60 cell line the peptide is associated with)
IGLRGEN,–,–,–,SNB-75 CNS
PYRRGSC,MDA-MB-231 Breast,–,–,–
ELRRLLS,TK-10 Renal,–,–,–
ACTGVSR,RXF393 Renal,–,–,–
LQGAGIH,–,–,A498 Renal,–
GRDWGGL,T-47D Breast,–,–,–
CVGLGCH,–,–,OVCAR-4 Ovarian,–
FTRGGLS,–,–,–,SNB-75 CNS
GGFLLVS,–,–,SK-OV-3-3 Ovarian,–
RNSRAGL,UO31 Renal,–,–,–
GLVRCVL,–,–,–,COLO-205-Colon
PLRSFDS,–,H23-Lung,–,–
GCGGVRD,–,–,–,HT-29 Colon
SNGLRVV,ACHN Renal,–,–,–
GRLRPFS,TK-10 Renal,–,–,–
GGSRNRW,–,H226-Lung,–,–
VYYRLSA,–,SR Leukemia,–,–
AVFRASR,CAIK-1 Renal,–,–,–
RGVKLGD,–,–,–,SW620-Colon
RRFWAGL,–,H460-Lung,–,–
VAWRGVS,–,A549-Lung,–,–
VDVGGAG,–,–,786-0 Renal,–
